According to patent publication US20190169562A1, “SCREENING OF IMMUNO-MODULATORY THERAPIES” (zPredicta, Inc., priority 2016, published 2019):

Test system: malignant plasma cells
Assay: bone marrow aspirates from multiple myeloma patients cultured in r-Bone and treated with pomalidomide
Format: cell-based, human
Details: patient bone marrow (n=10) in r-Bone, FIG. 4
Protocol: This example tested bone marrow aspirated from patients with multiple myeloma (n=10) were cultured in r-Bone system and treated with pomalidomide.

## Nc1cccc2c1C(=O)N(C1CCC(=O)NC1=O)C2=O (stereo not shown) [pomalidomide, Pomalidomide]
  elimination of malignant plasma cells: eliminated malignant plasma cells in a dose dependent manner
